Measurements published in PMC9317696, “New Benzil and Isoflavone Derivatives with Cytotoxic and NO Production Inhibitory Activities from Placolobium vietnamense” (Molecules, 2022).
Like-named read-outs stand apart in the source and are kept apart here.

Assays:
Format in all cases: cell-based
[1] = test system: NO production in macrophage RAW 264.7 cells; experiment: Inhibition of LPS-induced NO production in RAW 264.7 macrophages (Griess); settings: Mus musculus
Method: (§1) RAW 264.7 cells were stocked in Dulbecco’s Modified Essential and grown at the condition of 37 °C in DMEM supplemented with 10% heat-inactivated FBS, streptomycin sulfate (100 µg/mL), and penicillin (100 units/mL) in a humidified environment of 5% CO2. The RAW 264.7 cells were pre-incubated every two days.
The RAW 264.7 cells were stimulated with or without 1 μg/mL of LPS (lipopolysaccharide), which was purchased from Sigma Chemical Co. (St. Louis, MO, USA), for 24 h with or without 0.5% DMSO, celastrol, and isolated compounds at the indicated concentrations. The culture supernatant (100 μL) was then reacted with 100 μL of Griess reagent. After the Griess assay, the remaining cells were used to screen for their viability using colorimetric assay-MTT (Sigma Chemical Co., St. Louis, MO, USA).

Hep G2 cells = experiment: Cytotoxicity assay (MTT) against Hep G2 cell line; settings: Homo sapiens
Method: According to a previous procedure, the cytotoxic evaluation of 1–8 against the growth of human hepatocellular carcinoma (Hep G2) cell line was carried out. The positive control was ellipticine, a powerful anticancer medication with various modes of action. The cancer cells were grown in Dulbecco’s Modified Essential Medium (DMEM) at 37 °C in a 5 % CO2 environment with 10% fetal bovine serum (FBS), 1% penicillin and streptomycin, and 1% L-glutamine. The investigated compounds were added at concentrations ranging from 0.5 to 128 µg/mL by dissolving in DMSO (20 mg/mL), and the incubation was carried out once more for 72 h under the same conditions. Following the procedure, an MTT solution (10 µL, 5 mg/mL) was added to each well. The percentage of cell viability vs. sample concentration was plotted using SigmaPlot 10 (Systat Software Inc., San Jose, CA, USA) to calculate the IC50 values.

[2] = Cell viability assay (MTT) on RAW 264.7 cells; settings: mouse, read-out: cytotoxicity toward RAW 264.7 cells IC50
Method: as §1
The cell viability assay was used to determine the cytotoxic effect of the isolated compounds on RAW 264.7 cells. At a density of 1 × 10^5 cells per well, RAW 264.7 cells were seeded on a 96-well plate and allowed to adhere for 4 h. Then, the cells were treated with 0.5% DMSO, celastrol, and isolated compounds at the indicated concentrations. Celastrol was used as a positive control. After incubating 24 h, the viable cells were measured with a colorimetric assay based on the mitochondria’s ability in viable cells to reduce MTT [18]. The viability cells were treated with vehicle only and were defined as 100% viable. [OD570 (treated cell culture) × 100]/OD570 was the formula used to determine the percentage of macrophage surviving cells after treatment (vehicle control).

[3] = HepG2, 72 h, read-out: Cytotoxicity (IC50, µM)
[4] = RAW264.7, RAW 264.7 cells, 1 μg/mL LPS, 24 h, Griess reagent, mean of three experiments ± SD, read-out: NO Production (IC50)

| Structure (SMILES) | IC50 [1, 4] [µM] | IC50 ([1]; RAW264.7, 24 h, read-out: NO Production (IC50, µM)) [µM] | IC50 (Hep G2 cells; [3]) [µM] | IC50 at 24 h [2] [µM] | IC50 (Hep G2 cells; HepG2, Hep G2 cells, 72 h, MTT, mean of three experiments ± SD, read-out: Cytotoxicity (IC50)) [µM] |
| --- | --- | --- | --- | --- | --- |
| CC1=C(O)C(=O)C=C2C1=CC=C1[C@@]2(C)CC[C@@]2(C)[C@@H]3C[C@](C)(C(=O)O)CC[C@]3(C)CC[C@]12C [Celastrol, celastrol, reference compound] | – | 1 ± 0.1 | – | – | – |
| COc1ccc(-c2coc3c4c(c(OC)cc3c2=O)OC(C)(C)CC4)cc1 [Compound 1, placovinone A] | 13.7 ± 0.5 | – | 8 ± 0.2 | 79.2 | – |
| CC1(C)C=Cc2c(ccc3c(=O)c(-c4ccc5c(c4)OCO5)coc23)O1 [Compound 7, calopogoniumisoflavone B] | > 100 | – | 66.6 ± 0.5 | – | – |
| Cc1c2ccncc2c(C)c2c1[nH]c1ccccc12 [Ellipticine, ellipticine, reference compound] | – | – | – | – | 0.43 ± 0.03 |

Now from value to molecule, other results behind:

| IC50 [1, 4] [µM] | Structure (SMILES) | IC50 ([1]; RAW264.7, 24 h, read-out: NO Production (IC50, µM)) [µM] | IC50 (Hep G2 cells; [3]) [µM] | IC50 at 24 h [2] [µM] | IC50 (Hep G2 cells; HepG2, Hep G2 cells, 72 h, MTT, mean of three experiments ± SD, read-out: Cytotoxicity (IC50)) [µM] |
| --- | --- | --- | --- | --- | --- |
| 31 ± 0.3 | COc1cc(OC)c(C(=O)C(=O)c2cc(OC)c3c(c2O)C=CC(C)(C)O3)cc1OC [Compound 2, placovinone B] | – | 19.8 ± 1.5 | – | – |
| 47.4 ± 0.3 | COc1cc(OC)c(OC)cc1CC(=O)c1cc(OC)c2c(c1O)C=CC(C)(C)O2 [Compound 3, placovinone C] | – | 22.9 ± 0.5 | – | – |
| 15.5 ± 0.4 | COc1ccc(CC(=O)c2cc(OC)c3c(c2O)C=CC(C)(C)O3)cc1 [Compound 4, placovinone D] | – | 23.4 ± 0.5 | 42.6 | – |
| > 100 | COc1cc2c(cc1-c1coc3c4c(c(OC)cc3c1=O)OC(C)(C)C=C4)OCO2 [Compound 5, ichthynone] | – | 99.1 ± 0.9 | – | – |
| > 100 | COc1cc2c(=O)c(-c3ccc4c(c3)OCO4)coc2c2c1OC(C)(C)C=C2 [Compound 6, durmillone] | – | 71.6 ± 0.6 | – | – |
| 54.7 ± 0.2 | COc1ccc(-c2coc3c4c(ccc3c2=O)OC(C)(C)C=C4)cc1OC [Compound 8, 4′,5′-dimethoxy-6,6-dimethylpyranoisoflavone] | – | 35.6 ± 0.3 | – | – |
